According to US20160151451A1, “METHOD FOR GENERATING CARDIOMYOCYTES” (Korea Advanced Institute of Science and Technology (KAIST), priority 2014, published 2016):
Where a name gives a salt, the structure may show the parent alone. Read-outs that look alike come from different tables or passages of the source.

Assays:
[1] = tested on: mouse ESC-derived Flk1^+ MPCs; test: Differentiation of mouse ESC-derived Flk1^+ MPCs into cardiomyocytes in OP9 co-culture; assay type: cell-based; details: for optimal dose of reagent, determined by total and relative number of differentiated cTnT^+ cells: dose optimization, FIGS. 2A-D
Description: (§1) For induction of Flk1^+ MPCs, ESCs and iPSCs were cultured without LIF and plated on a 0.1% gelatin-coated dish at cell density 1-1.5×10^3 cells/cm^2 in the differentiation medium (alpha MEM, Invitrogen) with 10% fetal bovine serum (FBS) (Welgene), 2-mercaptoethanol (Invitrogen), L-glutamine (Invitrogen), and antibiotics (Invitrogen), which was changed every 2 days, for 4.5 days. At day 4.5, differentiated ESCs and iPSCs were harvested with 0.25% trypsin-EDTA and antigen recovery was performed in the differentiation medium for 30 min in an incubator. Then, cells were washed using phosphate buffered saline (PBS)/2% FBS and incubated with biotin-conjugated anti-mouse Flk1^+ antibody (clone AVAS 12a1, eBioscience) and […] MicroBeads (Miltenyi Biotec). Flk1^+ MPCs were sorted by AutoMACS Pro Separator (Miltenyi Biotec). For induction of cardioblasts and cardiomyocytes, sorted Flk1^+ MPCs were plated onto the MMC (AG scientific) treated confluent OP9 cells at a density of 5-10×10^3 cells/cm^2. For the induction of cardiomyocytes in a feeder free system, ESCs were plated on a 0.1% gelatin coated dish at cell density 3×10^3 cells/cm^2 without OP9 cells. Cells were cultured in the differentiation medium which was changed every 2 days.
CsA (a gift from Novartis Pharma, Korea), 6-Hydroxy-2,5,7,8-tetramethylchroman-2-carboxylic acid (Trolox, Sigma Aldrich), and EW7197 (Son et al., 2014) were dissolved in dimethyl sulfoxide (DMSO, Sigma Aldrich). Y27632 (Calbiochem) was dissolved in distilled water. Reagents were treated at the time of medium change. DMSO was treated as a control vehicle.
(§2) Differentiating Flk1^+ MPCs on OP9 cells were harvested with 0.25% trypsin-EDTA or dissociation buffer (Invitrogen). […] To analyze cTnT^+ cells, the cells were permeabilized using Cytofix/Cytoperm solution (BD Biosciences) for 15 min. […] After washing in 10% Perm/Wash buffer (BD Biosciences), the cells were incubated for 10 min with Cy5-conjugated anti-mouse IgG antibody (Invitrogen). The cells were washed with 10% Perm/Wash buffer (BD Biosciences) and then analyzed. In live cell analysis and sorting, dead cells were excluded using 4,6-diamidino-2-phenylindole (DAPI, Invitrogen) and OP9 cells were excluded from Flk1^+ MPCs by gating in flow cytometry. The differentiated cardiomyocytes were sorted using αMHC-GFP. Analyses and sorting were performed by FACS Aria II (Beckton Dickinson). Data were analyzed using FlowJo Version 7.5.4 software (TreeStar).
The cells were fixed with 2% paraformaldehyde (PFA) and blocked with 5% goat (or donkey) serum in PBST (0.1% Tween 20 in PBS) for 1 hr at room temperature (RT). […] After being washed with PBST 3 times, the cells were incubated for 2 hr at room temperature with the following secondary antibodies: Cy3-conjugated anti-mouse IgG antibody (Invitrogen), FITC-conjugated anti-rat IgG (Jackson ImmunoResearch), and Cy3-conjugated anti-rabbit IgG (Jackson ImmunoResearch) antibodies. After being stained with the antibodies, the cells were mounted in fluorescent mounting medium (DAKO). Nuclei were stained with 4,6-diamidino-2-phenylindole (DAPI, Invitrogen). Immunofluorescence staining of mitochondria was performed using MitoTracker Orange CMTMRos probe (Invitrogen) and cells were incubated with probe for 30 to 60 min at 37° C. in serum free medium before fixation. Immunocytochemistry stained images were obtained using an LSM510 confocal fluorescence microscope (Carl Zeiss). Live images of cardiomyocyte differentiation process and αMHC GFP^+ cardiomyocytes were obtained using Axiovert 200M microscope (Carl Zeiss) equipped with AxioCam MRm (Carl Zeiss). Images were analyzed using Image J software (http://imagej.nih.gov/ij/, 1.47V, NIH, USA). Phase-contrast images including beating cardiomyocytes were obtained using an Infinity X digital camera and DpxView LE software (DeltaPix).

[2] = tested on: voltage-gated Na^+ channels; assay type: cell-based, mouse
[3] = tested on: T-type Ca^2+ channels; test: Voltage-clamp recording of T-type Ca^2+ current (ICaT) in M^+CMs; assay type: cell-based, mouse; details: 1 μM
[4] = tested on: delayed rectifying K^+ channels
[5] = tested on: PCBs; test: PCB-derived cardiomyocyte differentiation with indicated reagents after PCB induction, OP9 co-culture; assay type: cell-based, mouse; details: FIGS. 14B, 14C
Description: as §2

[6] = tested on: mouse ESC-derived Flk1^+ MPCs; test: Induction of PDGFRα^+Flk1^− cardioblasts (PCBs) from mouse ESC-derived Flk1^+ MPCs; assay type: cell-based; details: each reagent of CsAYTE alone; FIGS. 11A, 11B
Description: as §1
Differentiating Flk1^+ MPCs on OP9 cells were harvested with 0.25% trypsin-EDTA or dissociation buffer (Invitrogen). […] To analyze cTnT^+ cells, the cells were permeabilized using Cytofix/Cytoperm solution (BD Biosciences) for 15 min. […] The cells were washed with 10% Perm/Wash buffer (BD Biosciences) and then analyzed. […] Data were analyzed using FlowJo Version 7.5.4 software (TreeStar).
The cells were fixed with 2% paraformaldehyde (PFA) and blocked with 5% goat (or donkey) serum in PBST (0.1% Tween 20 in PBS) for 1 hr at room temperature (RT). […] Immunocytochemistry stained images were obtained using an LSM510 confocal fluorescence microscope (Carl Zeiss). […] Images were analyzed using Image J software (http://imagej.nih.gov/ij/, 1.47V, NIH, USA). […]

[7] = tested on: ROCK; assay type: cell-based
Description: The meaning of “Rho-associated protein kinase (ROCK) inhibitor” is well known in the art. An assay for determining a ROCK suppressor or ROCK inhibitor can include for example the following method. ROCKs were discovered as the first effectors of Rho and they induce the formation of stress fibers and focal adhesions by phosphorylating MLC (myosin light chain). Therefore, an assay for determining ROCK suppression is confirming MLC phosphorylation inhibition such as by Western blotting.

[8] = in combination with CsA, data not shown

CCCCCCOC(=O)[C@]1(O)C[C@@H]2O[C@@]1(C)n1c3ccccc3c3c4c(c5c6ccccc6n2c5c31)C(=O)NC4 [KT5720]
effect on Flk1^+ MPC differentiation into cTnT^+ cells [1, 8]: rather inhibited or did not affect

Cc1c[nH]c(-c2cnc(NCCNc3ccc(C#N)cn3)nc2-c2ccc(Cl)cc2Cl)n1 [CHIR99021]
effect on Flk1^+ MPC differentiation into cTnT^+ cells [1, 8]: rather inhibited or did not affect

NC(=O)c1ncn([C@@H]2O[C@H](CO)[C@@H](O)[C@H]2O)c1N [AICAR]
effect on Flk1^+ MPC differentiation into cTnT^+ cells [1]: rather inhibited or did not affect

COC(=O)[C@@]1(OC)C[C@H]2O[C@]1(C)n1c3ccccc3c3c4c(c5c6ccccc6n2c5c31)C(=O)N(C)C4 [KT5823]
effect on Flk1^+ MPC differentiation into cTnT^+ cells [1, 8]: rather inhibited or did not affect

Cn1c2ccccc2c2c3c(c4c5ccccc5n(CCC#N)c4c21)CNC3=O [Go6976]
effect on Flk1^+ MPC differentiation into cTnT^+ cells [1, 8]: rather inhibited or did not affect

NC1=N[C@H](O)[C@H]2[C@H]3O[C@]4(O)O[C@@H]([C@@H](O)[C@@]2(N1)[C@@H]4O)[C@]3(O)CO [TTX, tetrodotoxin]
voltage gated Na^+ current (INa) [2]: inhibited

COCC(=O)O[C@]1(CCN(C)CCCc2nc3ccccc3[nH]2)CCc2cc(F)ccc2[C@@H]1C(C)C [mibefradil]
T-type Ca^2+ currents (ICaT) [3]: inhibited

O=S(=O)(c1cccc2c(I)cccc12)N1CCCNCC1 [ML7]
effect on Flk1^+ MPC differentiation into cTnT^+ cells [1, 8]: rather inhibited or did not affect

CC[N+](CC)(CC)CC [TEA, tetraethylammonium]
delayed rectifier K^+ current (IK) [4]: inhibited

Cc1cccc(-c2[nH]c(CNc3ccccc3F)nc2-c2ccc3ncnn3c2)n1 [EW7197, N-[[4-([1,2,4]triazolo[1,5-a]pyridin-6-yl)-5-(6-methylpyridin-2-yl)-1H-imidazol-2-yl]methyl]-2-fluoroaniline]
effect of omission of the reagent from CsAYTE on population of cTnT^+ and αMHC-GFP^+ cells [5]: slightly increased
Flk1^+ MPC differentiation into PCBs by each reagent [6]: 45.3%
optimal dose of reagent, determined by total and relative number of differentiated cTnT^+ cells [1]: 1 µg/mL

CCC(=O)NC[C@H](Cc1ccc(OCCc2nc(-c3ccccc3)oc2C)cc1)N/C(C)=C\C(=O)c1ccc(C(F)(F)F)cc1 [GW6471]
effect on Flk1^+ MPC differentiation into cTnT^+ cells [1, 8]: rather inhibited or did not affect

COc1cccc(-c2cc(=O)c3ccccc3o2)c1N [PD98059]
effect on Flk1^+ MPC differentiation into cTnT^+ cells [1, 8]: rather inhibited or did not affect

C[C@H](NC(=O)Cc1cc(F)cc(F)c1)C(=O)N[C@H](C(=O)OC(C)(C)C)c1ccccc1 [DAPT]
effect on Flk1^+ MPC differentiation into cTnT^+ cells [1, 8]: rather inhibited or did not affect

C[C@@H](N)[C@H]1CC[C@H](C(=O)Nc2ccncc2)CC1 [Y27632, [(+)-(R)-trans-4-(1-aminoethyl)-N-(4-pyridyl)cyclohexanecarboxamidedihydrochloride]]
Flk1^+ MPC differentiation into PCBs by each reagent [6]: 22.0%
optimal dose of reagent, determined by total and relative number of differentiated cTnT^+ cells [1]: 10 µM
MLC phosphorylation in Flk1^+ MPCs during differentiation [7]: inhibits

c1cc(-c2cnn3cc(-c4ccc(OCCN5CCCCC5)cc4)cnc23)ccn1 [Compound C]
effect on Flk1^+ MPC differentiation into cTnT^+ cells [1, 8]: rather inhibited or did not affect

Cc1c(C)c2c(c(C)c1O)CCC(C)(C(=O)O)O2 (stereo not drawn) [Trolox, 6-hydroxy-2,5,7,8-tetramethylchroman-2-carboxylic acid]
Flk1^+ MPC differentiation into PCBs by each reagent [6]: 19.3%
optimal dose of reagent, determined by total and relative number of differentiated cTnT^+ cells [1]: 400 µM
